According to US9938258B2 (Karyopharm Therapeutics Inc., priority 2012, dated 2018):

Tests used:
[1] = test system: MS751 cells; assay: MTT cell proliferation assay, MS751; format: cell-based, human; conditions: Homo sapiens, MS751, MS751 cells, approximately 64-72 hours incubation; read-out: MTT Assay IC50, MS751
Method in brief: (§1)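 Cells plated at 5,000-10,000/well and attached overnight, then treated with eight compound concentrations from 1 nM to 30 μM. MTT added ~4 h, formazan solubilised and read at 490 nm. Percent inhibition versus negative control = (1-(ODo/OD))×100, mostly in duplicate, mean ± SE.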

[2] = test system: Z138 cells; assay: MTT cell proliferation assay, Z138; format: cell-based; conditions: Homo sapiens, Z-138, Z138 cells, approximately 64-72 hours incubation; read-out: MTT Assay IC50, Z138
Method in brief: as §1

[3] = test system: 3T3 cells; assay: MTT cell proliferation assay, 3T3; format: cell-based, mouse; conditions: Mus musculus, NIH3T3, 3T3 cells, approximately 64-72 hours incubation; read-out: MTT Assay IC50, 3T3
Method in brief: as §1

[4] = test system: MM1S cell line; assay: MTT cell proliferation assay, MM1S; format: cell-based; conditions: Homo sapiens, MM1.S, incubation approximately 64-72 hours
Protocol: (§2) The MTT cell proliferation assay was used to study the cytotoxic properties of the compounds. The assay was performed according to the method described by Roche Molecular Biochemicals, with minor modifications. The assay is based on the cleavage of the tetrazolium salt, MTT, in the presence of an electron-coupling reagent. The water-insoluble formazan salt produced must be solubilized in an additional step. Cells grown in a 96-well tissue culture plate were incubated with the MTT solution for approximately 4 hours. After this incubation period, a water-insoluble formazan dye formed. After solubilization, the formazan dye was quantitated using a scanning multi-well spectrophotometer (ELISA reader). […] The cells were seeded at 5,000-10,000 cells in each well of 96-well plate in 100 μL of fresh culture medium and were allowed to attach overnight. The stock solutions of the compounds were diluted in 100 μL cell culture medium to obtain eight concentrations of each test compound, ranging from 1 nM to 30 μM. […] All optical densities were measured at 490 nm using a Vmax Kinetic Microplate Reader (Molecular Devices). In most cases, the assay was performed in duplicate and the results were presented as a mean percent inhibition to the negative control±SE. The following formula was used to calculate the percent of inhibition: Inhibition (%)=(1-(ODo/OD)) ×100.
The M24 cell line is derived from human melanoma cells. The U2OS cell line is a human osteosarcoma cell line expressing wild type p53 and Rb, but lacking p16. The MM1S cell line is a multiple myeloma cell line; the parent cell line, MM.1, was established from peripheral blood of a multiple myeloma patient who had become resistant to steroid-based therapy. The RPMI8226 cell line is derived from human B lymphocyte cells. NHDF cells are normal human dermal fibroblast cells. The MRC-5 cell line is derived from normal lung tissue of a fetus. The LN18 cell line is a human malignant glioma cell line. The DU-145 cell line is a human prostate cancer cell line. A549 cells are human adenocarcinomic human alveolar basal epithelial cells. […]

[5] = test system: LN18 cell line; assay: MTT cell proliferation assay, LN18; format: cell-based; conditions: Homo sapiens, LN-18, incubation approximately 64-72 hours
Protocol: as §2, with “×100. […]” for “×100.”

[6] = test system: A549 cells; assay: MTT cell proliferation assay, A549; format: cell-based; conditions: Homo sapiens, incubation approximately 64-72 hours
Protocol: as §2, with “×100. […]” for “×100.”

[7] = test system: MOLT4 cell line; assay: MTT cell proliferation assay, MOLT4; format: cell-based; conditions: Homo sapiens, MOLT-4, incubation approximately 64-72 hours
Protocol: as §2, with “×100. […]” for “×100.”

[8] = test system: THP1 cell line; assay: MTT cell proliferation assay, THP1; format: cell-based; conditions: Homo sapiens, THP-1, incubation approximately 64-72 hours
Protocol: as §2, with “×100. […]” for “×100.”

[9] = test system: OCIAML5 cell line; assay: MTT cell proliferation assay, OCIAML5; format: cell-based; conditions: Homo sapiens, OCI-AML-5, incubation approximately 64-72 hours
Protocol: as §2, with “×100. […]” for “×100.”

[10] = test system: MDA-MB-231 cell line; assay: MTT cell proliferation assay, MDA-MB-231; format: cell-based; conditions: Homo sapiens, incubation approximately 64-72 hours
Protocol: as §2, with “×100. […]” for “×100.”

[11] = test system: HL-60 cells; assay: MTT cell proliferation assay, HL-60; format: cell-based; conditions: Homo sapiens, incubation approximately 64-72 hours
Protocol: as §2, with “×100. […]” for “×100.”

[12] = test system: Hep G2 cells; assay: MTT cell proliferation assay, Hep G2; format: cell-based; conditions: Homo sapiens, HepG2, incubation approximately 64-72 hours
Protocol: as §2
The M24 cell line is derived from human melanoma cells. The U2OS cell line is a human osteosarcoma cell line expressing wild type p53 and Rb, but lacking p16. The MM1S cell line is a multiple myeloma cell line; the parent cell line, MM.1, was established from peripheral blood of a multiple myeloma patient who had become resistant to steroid-based therapy. The RPMI8226 cell line is derived from human B lymphocyte cells. NHDF cells are normal human dermal fibroblast cells. The MRC-5 cell line is derived from normal lung tissue of a fetus. The LN18 cell line is a human malignant glioma cell line. The DU-145 cell line is a human prostate cancer cell line. A549 cells are human adenocarcinomic human alveolar basal epithelial cells. The MOLT4 cell line is a human acute lymphoblastic leukemia cell line. The THP1 cell line is a human leukemic monocytic cell line derived from peripheral blood. The OCIAML5 cell line is a human acute myeloid leukemia cell line. The MDA-MB-231 cell line is a human breast adenocarcinoma cell line. The MDA-MB-468 cell line is a human breast carcinoma cell line. HL-60 cells are human promyelocytic leukemia cells. Hep G2 cells are human hepatocellular carcinoma cells. HEP 3B cells are human hepatocellular carcinoma cells. The DLD-1 cell line is a colorectal adenocarcinoma cell line. The HCT-15 cell line is a human colon carcinoma cell line. The Colo-205 cell line is derived from a human adenocarcinoma of the colon. […]

[13] = test system: HCT-15 cell line; assay: MTT cell proliferation assay, HCT-15; format: cell-based; conditions: Homo sapiens, incubation approximately 64-72 hours
Protocol: as §2, with “×100. […]” for “×100.”

[14] = test system: Daudi cell line; assay: MTT cell proliferation assay, Daudi; format: cell-based; conditions: Homo sapiens, incubation approximately 64-72 hours
Protocol: as §2, with “×100. […]” for “×100.”

[15] = test system: L3.6pl cell line; assay: MTT cell proliferation assay, L3.6pl; format: cell-based; conditions: Homo sapiens, incubation approximately 64-72 hours
Protocol: as §2, with “×100. […]” for “×100.”

Structure (SMILES): Nc1ccc(/C=C/C(=O)NCC2Cc3cc(-c4ccc(C(=O)N5CCOCC5)cc4)cc(Cl)c3O2)cn1 (stereo not drawn) [Compound 302, (E)-3-(6-Aminopyridin-3-yl)-N-((7-chloro-5-(4-(morpholine-4-carbonyl)phenyl)-2,3-dihydrobenzofuran-2-yl)methyl)acrylamide]
- IC50 [1]: < 100 nM
- IC50 [2]: < 100 nM
- IC50 [3]: 100 to 5000 nM
- IC50 [4]: < 100 nM
- IC50 [5]: 100 to 5000 nM
- IC50 [6]: 100 to 5000 nM
- IC50 [7]: < 100 nM
- IC50 [8]: 100 to 5000 nM
- IC50 [9]: < 100 nM
- IC50 [10]: 100 to 5000 nM
- IC50 [11]: 100 to 5000 nM
- IC50 [12]: < 100 nM
- IC50 [13]: < 100 nM
- IC50 [14]: < 100 nM
- IC50 [15]: 100 to 5000 nM
